Experimental data from patent publication US20260109721A1, “IONIZABLE CATIONIC LIPIDS INCORPORATING SILICON: SYNTHESIS AND LNP FORMULATION” (priority 2023, published 2026).

Assays:
[1] = Encapsulation efficiency of loaded LNPs, RiboGreen RNA assay (Method A); assay type: physicochemical; settings: encapsulation efficiency of mRNA-loaded LNP, Method A, RiboGreen
Summary of the method: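 Encapsulation determined by RiboGreen fluorescence (excitation 480, emission 525) comparing Triton X-100–lysed and intact LNP wells, duplicates, after 10 min at 37° C and cooling to room temperature. Sample stocks ~4-7 μg/mL RNA in TE buffer; concentration from RNA standard curve.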

HepG2 cell line = test: In vitro toxicity study on HepG2 cell line (resazurin, viability and IC50); assay type: cell-based, human; settings: resazurin; for Viability (%) at different lipid concentrations, mean: HepG2 cells, 48 h post-treatment, relative to ethanol vehicle controls; for IC50: Homo sapiens, lipid toxicity, HepG2, 48 h post-treatment, 6.25-800 μM, read-out: IC50 value, μM (on HepG2 cell)
Summary of the method: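 Resazurin read-out (ex 530/em 580 nm, 5 h at 37 °C) measured lipid toxicity 48 h after dosing HepG2 cells (1000/well) at 6.25–800 μM. Viability was normalised to ethanol vehicle, and IC50 was derived from concentration-response curves.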

Structure (SMILES) | EE (%) [1] [%] | Viability (%) at different lipid concentrations, mean (HepG2 cell line; 6.25 μM lipid) [%] | Viability (%) at different lipid concentrations, mean (HepG2 cell line; 12.5 μM lipid) [%] | Viability (%) at different lipid concentrations, mean (HepG2 cell line; 25 μM lipid) [%] | Viability (%) at different lipid concentrations, mean (HepG2 cell line; 50 μM lipid) [%] | Viability (%) at different lipid concentrations, mean (HepG2 cell line; 100 μM lipid) [%] | Viability (%) at different lipid concentrations, mean (HepG2 cell line; 200 μM lipid) [%] | Viability (%) at different lipid concentrations, mean (HepG2 cell line; 400 μM lipid) [%] | Viability (%) at different lipid concentrations, mean (HepG2 cell line; 800 μM lipid) [%] | IC50 (HepG2 cell line) [µM]
CCCCC/C=C\C/C=C\CCCCCCCCOC(CCCCCCC/C=C\C/C=C\CCCCC)O[Si](C)(C)OCCCCCCN(CCO)CCN(CCO)CCCCCCO[Si](C)(C)OC(CCCCCCC/C=C\C/C=C\CCCCC)OCCCCCCCC/C=C\C/C=C\CCCCC (stereo not drawn) [Example 71, (26Z,29Z)-16-((8Z,11Z)-heptadeca-8,11-dien-1-yl)-3-((20Z,23Z)-10-((8Z,11Z)-heptadeca-8,11-dien-1-yl)-8,8-dimethyl-7,9,11-trioxa-8-silanonacosa-20,23-dien-1-yl)-6-(2-hydroxyethyl)-14,14-dimethyl-13,15,17-trioxa-3,6-diaza-14-silapentatriaconta-26,29-dien-1-ol] | 84 | 102.71 | 102.5 | 106.2 | 107.61 | 93.09 | 72.87 | 39.19 | 9.92 | 321
CCCCCCCC/C=C\CCCCCCCCOC(=O)C(C)(C)CC(OCCCCCCCC/C=C\CCCCCCCC)O[Si](C)(C)OCCCCCCN1CCOCC1 (stereo not drawn) [Example 85, (Z)-octadec-9-en-1-yl 4-((dimethyl((6-morpholinohexyl)oxy)silyl)oxy)-2,2-dimethyl-4-(((Z)-octadec-9-en-1-yl)oxy)butanoate] | 90 | 97.0 | 101.0 | 101.4 | 102.1 | 101.5 | 101.9 | 103.2 | 80.1 | > 800
CCCCC/C=C\C/C=C\CCCCCCCCOC(CCCCCCC/C=C\C/C=C\CCCCC)O[Si](C)(C)OCCCCCCN(C)CCCCO (stereo not drawn) [Example 60, (25Z,28Z)-15-((8Z,11Z)-heptadeca-8,11-dien-1-yl)-5,13,13-trimethyl-12,14,16-trioxa-5-aza-13-silatetratriaconta-25,28-dien-1-ol] | 84 | 100.0 | 99.3 | 98.4 | 107.2 | 117.1 | 101.1 | 73.6 | 35.2 | 310
CCCCCCCC/C=C\CCCCCCCCOC(=O)C(C)(C)CCC(OCCCCCCCC/C=C\CCCCCCCC)O[Si](C)(C)OCCCCCCN1CCOCC1 (stereo not drawn) [Example 95, (Z)-octadec-9-en-1-yl 5-((dimethyl((6-morpholinohexyl)oxy)silyl)oxy)-2,2-dimethyl-5-(((Z)-octadec-9-en-1-yl)oxy)pentanoate] | 88 | 102.8 | 97.8 | 98.4 | 99.7 | 98.8 | 100.3 | 103.6 | 104.6 | > 800
CCCCCCCC/C=C\CCCCCCCC(OCC(CCCCCC)CCCCCCCC)O[Si](C)(C)OCCCCCCN(CCO)CCO (stereo not drawn) [Example 50, (Z)-13-(heptadec-8-en-1-yl)-16-hexyl-3-(2-hydroxyethyl)-11,11-dimethyl-10,12,14-trioxa-3-aza-11-silatetracosan-1-ol] | 86 | 101.0 | 97.6 | 99.0 | 97.9 | 96.0 | 100.0 | 96.5 | 86.8 | > 800
CCCCCCCC/C=C\CCCCCCCC(OCC(CCCCCCCC)SCCCCC)O[Si](C)(C)OCCCCCCN(CCO)CCO (stereo not drawn) [Example 72, (Z)-13-(heptadec-8-en-1-yl)-3-(2-hydroxyethyl)-11,11-dimethyl-16-octyl-10,12,14-trioxa-17-thia-3-aza-11-siladocosan-1-ol] | 87 | 104.3 | 94.1 | 102.5 | 101.6 | 100.3 | 96.6 | 110.6 | 103.0 | > 800
